Laboratory results reported in ChEMBL document CHEMBL1201862, “PubChem BioAssay data set” (2004).
Activity calls are given as the source filed them.

Legend:
[1] = target: T1, Mannose-6-phosphate isomerase (Homo sapiens, UniProt P34949); assay: human PMI inhibitors, high substrate, primary screen, biochemical, fluorescence intensity, high mannose 6-phosphate (AID 1220)
T1 sequence (P34949 whole entry): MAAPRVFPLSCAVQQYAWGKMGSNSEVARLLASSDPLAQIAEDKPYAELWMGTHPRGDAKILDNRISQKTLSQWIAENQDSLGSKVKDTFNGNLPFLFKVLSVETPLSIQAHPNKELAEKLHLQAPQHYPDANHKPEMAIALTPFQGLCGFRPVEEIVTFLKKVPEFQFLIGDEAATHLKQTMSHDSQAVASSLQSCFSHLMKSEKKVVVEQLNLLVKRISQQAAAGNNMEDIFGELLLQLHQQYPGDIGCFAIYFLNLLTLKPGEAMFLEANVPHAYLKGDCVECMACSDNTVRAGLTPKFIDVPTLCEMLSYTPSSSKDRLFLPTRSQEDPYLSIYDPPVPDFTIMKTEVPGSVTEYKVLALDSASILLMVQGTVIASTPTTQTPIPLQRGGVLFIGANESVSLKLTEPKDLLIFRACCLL

[2] = target: Prothrombin (Homo sapiens, UniProt P00734); assay: Thrombin 1536 HTS Dose Response Confirmation. [Related pubchem assays: 1046 (Thrombin 1536 HTS; hits were confirmed in this assay)]; format: functional
[3] = target: Glucose-6-phosphate 1-dehydrogenase (Homo sapiens, UniProt P11413); assay: human G6PD enzyme inhibitors, dose response, selectivity assay for P. falciparum G6PD inhibitor project, biochemical, fluorescence (AID 504792); format: functional
[4] = target: T2, Polyadenylate-binding protein 1 (Homo sapiens, UniProt P11940); assay: PABP1 MLLE–PAM2 interaction inhibitors, dose response, miRNA deadenylation inhibitor project, biochemical, fluorescence polarization, Cy5-PAM2 peptide, secondary (AID 602260); format: functional; conditions: read-out: IC50_Mean
[5] = target: T2, Polyadenylate-binding protein 1; assay: PABP1 MLLE–PAM2 binding inhibitor potency, dose response, biochemical, fluorescence polarization, FITC-PAM2 peptide (AID 602259); format: functional; conditions: read-out: IC50_Mean
[6] = A cytotoxicity screen of small molecule inhibitors of the PhoP region in Salmonella typhi identified in the primary screen. [Related pubchem assays: 1850, 1864, 1985 ]; format: functional
[7] = P. falciparum late gametocyte killing, dose response, luminescence (AID 1117278); format: functional, cell-based;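 note: gametocytes exposed to compound for 24 hours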
[8] = Jurkat T cell cytotoxicity, dose response, cytotoxicity control for P. falciparum gametocyte viability project, luminescence (AID 1117277); format: functional, cell-based;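 note: potency reflects loss of cellular ATP meaning fewer viable cells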
[9] = target: T3, Calpain-2 catalytic subunit (Sus scrofa, UniProt P43367); assay: pig calpain II inhibitor potency, dose response, biochemical, fluorogenic peptide substrate (AID 1420); format: functional
T3 sequence (P43367 whole entry): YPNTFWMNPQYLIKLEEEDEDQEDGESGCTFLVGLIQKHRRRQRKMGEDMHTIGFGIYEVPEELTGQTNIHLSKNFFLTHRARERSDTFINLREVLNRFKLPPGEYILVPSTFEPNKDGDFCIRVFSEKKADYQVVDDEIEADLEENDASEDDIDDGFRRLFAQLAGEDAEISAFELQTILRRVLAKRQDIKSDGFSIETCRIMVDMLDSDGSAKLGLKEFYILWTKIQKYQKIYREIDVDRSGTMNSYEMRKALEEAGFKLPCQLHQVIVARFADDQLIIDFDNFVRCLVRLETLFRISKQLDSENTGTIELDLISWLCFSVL

T2 sequence (P11940 whole entry): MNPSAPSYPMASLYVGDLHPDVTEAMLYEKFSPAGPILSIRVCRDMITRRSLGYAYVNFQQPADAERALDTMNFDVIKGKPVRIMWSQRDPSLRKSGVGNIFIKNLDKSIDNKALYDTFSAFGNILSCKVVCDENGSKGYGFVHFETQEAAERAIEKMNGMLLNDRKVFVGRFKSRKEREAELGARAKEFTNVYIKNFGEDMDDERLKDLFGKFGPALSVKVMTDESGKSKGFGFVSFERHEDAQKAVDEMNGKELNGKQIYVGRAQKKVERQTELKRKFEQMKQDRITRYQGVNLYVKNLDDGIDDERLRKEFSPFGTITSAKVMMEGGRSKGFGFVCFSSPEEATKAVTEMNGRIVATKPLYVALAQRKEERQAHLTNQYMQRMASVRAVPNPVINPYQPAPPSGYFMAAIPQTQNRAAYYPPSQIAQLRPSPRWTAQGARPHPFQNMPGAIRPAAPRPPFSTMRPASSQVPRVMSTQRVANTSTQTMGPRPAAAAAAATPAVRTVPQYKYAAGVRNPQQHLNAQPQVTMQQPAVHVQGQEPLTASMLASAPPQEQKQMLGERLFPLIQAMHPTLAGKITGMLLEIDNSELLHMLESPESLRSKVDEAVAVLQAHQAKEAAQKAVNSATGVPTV
Sequence of Glucose-6-phosphate 1-dehydrogenase (P11413 whole entry): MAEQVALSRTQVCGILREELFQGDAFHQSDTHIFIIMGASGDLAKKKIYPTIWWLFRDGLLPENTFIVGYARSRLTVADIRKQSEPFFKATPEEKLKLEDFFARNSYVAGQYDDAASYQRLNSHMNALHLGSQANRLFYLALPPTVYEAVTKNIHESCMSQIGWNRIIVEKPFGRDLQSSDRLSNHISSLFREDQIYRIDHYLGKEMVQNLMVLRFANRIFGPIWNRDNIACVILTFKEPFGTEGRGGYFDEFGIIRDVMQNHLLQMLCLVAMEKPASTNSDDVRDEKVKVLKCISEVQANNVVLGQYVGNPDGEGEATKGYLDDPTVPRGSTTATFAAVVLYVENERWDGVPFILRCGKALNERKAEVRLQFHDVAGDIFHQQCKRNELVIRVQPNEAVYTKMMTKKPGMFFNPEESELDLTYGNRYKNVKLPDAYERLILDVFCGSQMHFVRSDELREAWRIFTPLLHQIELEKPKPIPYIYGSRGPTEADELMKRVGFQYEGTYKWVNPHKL

With CCOC(=O)C1CCN(Cc2c(O)ccc3ccccc23)CC1 the IC50 [1] was > 50 µM (not active).

In the case of Cn1nnc(CC[N+](C)(C)C)n1, the IC50 [2] is reported as > 50 µM (not active).

In the case of Cc1ccc(-c2nc(N)s[n+]2-c2ccccc2)cc1, the IC50 [1] is reported as 4.91 µM (active), the IC50 [3] is reported as 27.2 µM (inactive) and the IC50 [4] is reported as > 66 µM (inactive). For the same compound, the IC50 [5] was > 66 µM (inactive).

In the case of Cc1nc(-c2ccc(C(=O)N3CCOCC3)cc2)cs1, the EC50 [6] is reported as > 50 µM (active), the IC50 [7] is reported as > 109 µM (inactive) and the IC50 [8] is reported as > 83.3 µM (inactive).

For Cc1ccc(C(=O)N2C(CC(=O)Nc3ccc(Cl)cc3)C(=O)NC3CCCCC32)cc1 (stereo not drawn), the IC50 [2] was 3.25 µM (active).

With O=C(COc1ccc([N+](=O)[O-])cc1)Nc1ccc(CN2CCOCC2)cc1 the IC50 [9] was 41.1 µM (not active).

In the case of COc1ccc(/C=C/c2c(-c3ccc(OC)cc3)oc3cccnc23)cc1, the IC50 [7] is reported as > 109 µM (inactive) and the IC50 [8] is reported as > 83.3 µM (inactive).
